The source of these data is patent publication US7220780B2, “Naaladase inhibitors for treating retinal disorders and glaucoma” (Guilford Pharmaceuticals Inc., priority 2000, dated 2007).

The target in one assay is NAALADase (Rattus norvegicus, UniProt P70627). In words: In vitro inhibition of NAALADase activity. The conditions noted are these: for Ki: read-out: K1. The class given is biochemical.
Assay [1] concerns male Brown Norway rats. Kind of assay: Experimental rat glaucoma (IOP elevation by hypertonic saline), optic nerve fiber counting. The conditions noted are these: 8 week group, 10 mg/kg daily i.p. Format: in vivo. As to the method: (§1) All experiments complied with the Association for Research in Vision and Ophthalmology Statement for the Use of Animals in Ophthalmic and Vision Research. 82 male Brown Norway rats (Rattus norvegicus), each weighing approximately 250 gm, were treated using procedures approved by the Animal Care Committee of the Johns Hopkins University School of Medicine. The rats were housed with a 12 hour light/12 hour dark cycle and fed ad libitum .
EXPERIMENTAL GLAUCOMA: Unilateral elevation of IOP was produced in 56 rats by microinjection of hypertonic saline into episcleral veins, following procedures described in Morrison, J. et al., IOVS (March 1998) 39:526-531. Beginning on the day of IOP elevation, the rats were treated daily with intraperitoneal injections of either a vehicle (23 rats with 50 mM HEPES-buffered saline) or a NAALADase inhibitor (11 rats with 10 mg/kg of 2-[[(2,3,4,5,6-pentafluorobenzyl)hydroxyphosphinyl]-methyl]pentanedioic acid (“Compound A”) and 22 rats with 10 mg/kg of 2-(3-sulfanylpropyl)pentanedioic acid (“Compound B”)). 11 saline treated rats, 11 Compound A treated rats and 11 Compound B treated rats were sacrificed at 8 weeks, and the remaining rats at 12 weeks, after initial IOP elevation.
(§2) OPTIC NERVE COUNTING: The rats were sacrificed by exsanguination under deep pentobarbital anesthesia. They were perfused through the heart with 2% paraformaldehyde/2% glutaraldehyde in 0.1 M phosphate buffer, pH 7.2, and the eyes with attached optic nerves were removed. A cross-section of the optic nerve from both experimental (glaucoma or transection) and control eyes was removed 1.5 mm posterior to the globe, 1 mm in thickness, and post-fixed in 2% osmium tetroxide in buffer. These were processed into epoxy resin, sectioned at 1 micron and stained with toluidine blue.
(§3) The area of the optic nerve cross-section was measured by outlining its outer border at 10×magnification on an image analysis system (Universal Imaging Corp., Westchester, Pa.) with Synsys digital camera and Metamorph software. Three area measurements were taken and the mean value was determined. To measure the density and fiber diameter distributions, images were captured with a 100× phase contrast objective from 10 different areas of each nerve. These were edited to eliminate non-neural objects and the size of each axon internal to the myelin sheath (its minimum diameter) and the density of axons/square mm were calculated for each image and nerve. The mean density was multiplied by total nerve area to yield fiber number for each nerve. The total fiber number in glaucoma or transection nerves was compared to the normal, fellow eye of each rat to yield a percent loss value. The number of axons counted among the 10 images was an approximately 20% sample of the 80-90,000 axons in normal rat nerves. The person measuring axon number was masked to the protocol conducted on the nerves.

Assay [2] relates to male Brown Norway rats. In words: Optic nerve transection in rats, optic nerve fiber counting. The class given is in vivo, Rattus norvegicus. As to conditions: for FIBER NUMBER ± SEM / PERCENT DIFFERENCE ± SEM: 10 mg/kg daily i.p.; for PERCENT DIFFERENCE ± SEM: transected vs normal eye. The method, then:
as §1
OPTIC NERVE TRANSECTION: The optic nerve was transected unilaterally in 26 rats under intraperitoneal pentobarbital anesthesia. The conjunctiva was opened with scissors and the optic nerve exposed by traction on extraocular muscles. The transection was performed with microscissors 5 mm posterior to the globe, with specific attention to avoidance of injury to major ocular blood vessels. Immediately after transection, the retina was examined ophthalmoscopically to assure that the retinal arterial blood supply was not disrupted. The conjunctiva was closed with absorbable suture and the eye dressed with antibiotic ointment. Beginning on the day of transection, the rats were treated daily with intraperitoneal injections of either a vehicle (9 rats with 50 mM HEPES-buffered saline) or a NAALADase inhibitor (8 rats with 10 mg/kg of Compound A and 9 rats with 10 mg/kg of Compound B). 5 saline treated rats, 3 Compound A treated rats and 4 Compound B treated rats were sacrificed at 2 weeks, and the remaining rats at 4 weeks, after transection.
as §2, §3

The mark [3] stands for this setting: 2 weeks survival after transection.
Setting [4] is: 4 weeks survival after transection.

NAALADase, sequence (P70627 whole entry): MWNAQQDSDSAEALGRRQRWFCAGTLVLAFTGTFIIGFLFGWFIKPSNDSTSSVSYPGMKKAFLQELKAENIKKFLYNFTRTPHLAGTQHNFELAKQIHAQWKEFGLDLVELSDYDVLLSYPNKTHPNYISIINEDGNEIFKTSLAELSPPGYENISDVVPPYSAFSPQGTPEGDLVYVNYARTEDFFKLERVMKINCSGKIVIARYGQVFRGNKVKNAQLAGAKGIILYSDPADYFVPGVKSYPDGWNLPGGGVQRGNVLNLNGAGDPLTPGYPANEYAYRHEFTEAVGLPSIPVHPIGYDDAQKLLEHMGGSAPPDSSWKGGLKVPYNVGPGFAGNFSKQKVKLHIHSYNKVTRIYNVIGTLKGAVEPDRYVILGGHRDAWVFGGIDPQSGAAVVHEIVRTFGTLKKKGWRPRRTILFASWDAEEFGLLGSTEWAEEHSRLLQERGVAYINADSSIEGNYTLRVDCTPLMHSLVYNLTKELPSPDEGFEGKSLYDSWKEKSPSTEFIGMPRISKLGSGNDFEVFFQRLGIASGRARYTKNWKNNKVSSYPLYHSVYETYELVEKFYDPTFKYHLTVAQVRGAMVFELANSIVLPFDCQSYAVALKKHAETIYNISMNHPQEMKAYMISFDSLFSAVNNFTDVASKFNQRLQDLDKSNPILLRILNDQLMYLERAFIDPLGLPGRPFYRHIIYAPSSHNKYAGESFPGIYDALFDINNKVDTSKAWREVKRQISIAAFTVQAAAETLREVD

Take `O=C(O)c1ccc(OCCCSSCCCOc2ccc(C(=O)O)cc2C(=O)O)c(C(=O)O)c1` [4-[3-[[3-(2,4-dicarboxyphenoxy)-propyl]-dithio]propoxy]-1,3-benzenedicarboxylic acid]: on NAALADase, the Ki was 3.75 µM.

Take `O=C(O)c1ccc(C(=O)c2ccc(Oc3ccc(C(=O)O)c(C(=O)O)c3)cc2)c(C(=O)O)c1` [4-[4-(2,4-dicarboxybenzoyl)phenoxy]-1,2-benzenedicarboxylic acid]: the Ki at NAALADase amounted to 1.17 µM.

As for `O=C(O)c1ccc(C(=O)O)c(S(=O)(=O)c2cc(C(=O)O)ccc2C(=O)O)c1` [2-[(2,5-dicarboxyphenyl)sulfonyl]-1,4-benzenedicarboxylic acid], on NAALADase, the Ki is 1.87 µM.

For the compound `O=C(O)c1cc(CNCc2ccco2)cc(C(=O)O)c1` [5-[[(2-furanylmethyl)amino]methyl]-1,3-benzenedicarboxylic acid], at NAALADase, the Ki is 50 µM.

For orientation: IC50 means the concentration that inhibits the measured activity by half. A lower IC50 goes with greater potency in that assay. In turn, “3-(2-Carboxy-4-hydroxycarbamoyl-butyl)-benzoic acid” showed an IC50 on NAALADase of 0.0478 µM.

Take `O=C(O)c1ccc(C(=O)O)c(Sc2ccccc2C(=O)O)c1` [2-[(2-carboxyphenyl)thio]-1,4-benzenedicarboxylic acid]: on NAALADase, the Ki was determined as 0.572 µM.

For the compound `O=C(O)c1cc(OCCCS)cc(C(=O)O)c1` [5-(3-mercaptopropoxy)-1,3-benzenedicarboxylic acid], the Ki at NAALADase was determined as 3.3 µM.

With `O=C(O)c1ccc(Sc2ccccc2C(=O)O)c(C(=O)O)c1` [4-[(2-carboxyphenyl)thio]-1,3-benzenedicarboxylic acid], the Ki at NAALADase is 3.98 µM.

On to `O=C(O)CCC(CP(=O)(O)Cc1c(F)c(F)c(F)c(F)c1F)C(=O)O` (stereo not drawn) [Compound A, 2-[[(2,3,4,5,6-pentafluorobenzyl)hydroxyphosphinyl]-methyl]pentanedioic acid], for which the “FIBER NUMBER ± SEM” value is reported as 79156 ± 2436 with male Brown Norway rats [1], 26,426 ± 13,293 with male Brown Norway rats [2] (setting [3]) and 13,599 ± 3,519 with male Brown Norway rats [2] (setting [4]). The “PERCENT DIFFERENCE ± SEM” value with male Brown Norway rats [1] (fiber number glaucoma vs normal eye, positive = fewer fibers in glaucoma eye) is recorded as −1.82 ± 2.92%; with male Brown Norway rats [2] (setting [3]), 65.3 ± 17.8%; in the assay with male Brown Norway rats [2] (setting [4]), 82.4 ± 4.0%. In addition, in the assay on male Brown Norway rats [1] (glaucoma eye vs normal eye), the “IOP INTEGRAL DIFFERENCE ± SEM” value worked out at 85 ± 37.5 mm Hg—days. In the assay with male Brown Norway rats [2] (2 weeks after transection), the “remaining axons relative to the saline-treated rats” value was 3 times.

`O=C(O)c1cc(CCS)cc(C(=O)O)c1` [5-(2-mercaptoethyl)-1,3-benzenedicarboxylic acid]: on NAALADase, the Ki came out at 5.1 µM.

With `O=C(O)Cc1cc(C(=O)O)ccc1C(=O)O` [2-carboxymethyl-1,4-benzenedicarboxylic acid], the Ki on NAALADase is 9 µM.

For the compound `O=C(O)c1cc(CS)cc(C(=O)O)c1` [5-mercaptomethyl-1,3-benzenedicarboxylic acid], the Ki on NAALADase came to 6.5 µM.

In the case of `O=C(O)c1cc(C(=O)O)cc(P(=O)(O)O)c1` [5-phosphono-1,3-benzenedicarboxylic acid], the Ki on NAALADase is 14 µM.

`O=C(O)CNc1cc(C(=O)O)cc(C(=O)O)c1` [5-[(carboxymethyl)amino]-1,3-benzenedicarboxylic acid]: the Ki at NAALADase worked out at 100 µM.

As for `O=C(Cc1cc(C(=O)O)cc(C(=O)O)c1)NO` [5-[2-(hydroxyamino)-2-oxoethyl]-1,3-benzenedicarboxylic acid], the Ki at NAALADase was determined as 12 µM.

Turning to `O=C(O)c1ccc(CCS)c(C(=O)O)c1` [4-(2-mercaptoethyl)-1,3-benzenedicarboxylic acid], the Ki at NAALADase came out at 0.116 µM.

In the case of `O=C(O)c1cc(OCCS)cc(C(=O)O)c1` [5-(2-mercaptoethoxy)-1,3-benzenedicarboxylic acid], the Ki on NAALADase came out at 14.5 µM.

For the compound `O=C(O)c1cc(C(=O)O)cc(C(=O)NO)c1` [5-[(hydroxyamino)-carbonyl]-1,3-benzenedicarboxylic acid], at NAALADase, the Ki was 1 µM.

Turning to `O=C(O)c1ccc(S(=O)(=O)c2cc(C(=O)O)ccc2C(=O)O)cc1` [2-[(4-carboxyphenyl)sulfonyl]-1,4-benzenedicarboxylic acid], on NAALADase, the Ki was found to be 2.37 µM.

Take `O=C(O)c1cc(CP(=O)(O)O)cc(C(=O)O)c1` [5-phosphonomethyl-1,3-benzenedicarboxylic acid]: on NAALADase, the Ki turned out to be 3.1 µM.
